# From patent US20220009914A1, “Analogs of Nitrofuran Antibiotics to Combat Resistance” (The Trustees of Indiana University, priority 2020, published 2022)
# Assays:
# E. coli GroEL/ES = molecular target: T1, E. coli GroEL/ES (Escherichia coli, UniProt P0A6F5); experiment: GroEL/ES-mediated dMDH refolding assay; type: biochemical
# T1 construct: made in house; host or cells: GroEL in NEB 5-alpha E. coli; GroES in E. coli BL21 (DE3)
# Experimental: Evaluating compounds for inhibition in the GroEL/ES-mediated dMDH refolding assay. All compounds were evaluated for inhibiting E. coli GroEL/ES-mediated refolding of the denatured MDH reporter enzyme. Reagent preparation: For these assays, four primary reagent stocks were prepared: 1) GroEL/ES-dMDH binary complex stock; 2) ATP initiation stock; 3) EDTA quench stock; 4) MDH enzymatic assay stock. Denatured MDH (dMDH) was prepared by 2-fold dilution of MDH (5 mg/ml, soluble pig heart MDH from Roche, product #10127248001) with denaturant buffer (7 M guanidine-HCl, 200 mM Tris, pH 7.4, and 50 mM DTT). MDH was completely denatured by incubating at room temperature for >45 min. The binary complex solutions were prepared by slowly adding the dMDH stock to a stirring stock with GroEL and GroES in folding buffer (50 mM Tris-HCl, pH 7.4, 50 mM KCl, 10 mM MgC2, and 1 mM DTT). […] For the ATP initiation stock, ATP solid was diluted into folding buffer to a final concentration of 2.5 mM. Quench solution contained 600 mM EDTA (pH 8.0). The MDH enzymatic assay stock consisted of 20 mM sodium mesoxalate and 1.6 mM NADH in reaction buffer (50 mM Tris-HCl, pH 7.4, 50 mM KCl, and 1 mM DTT).
# Assay Protocol: First, 30 μL aliquots of the GroEL/ES-dMDH binary complex stocks were dispensed into clear, 384-well polystyrene plates. […] The chaperonin-mediated refolding cycles were initiated by addition of 20 μL of ATP stock (reagent concentrations during refolding cycle: 50 nM GroEL, 60 nM GroES, 12 nM dMDH, 1 mM ATP, and compounds of 100 μM to 46 nM, 3-fold dilution series) and the refolding reactions were incubated at 37° C. […] Next, the assay was quenched by addition of 10 μL of the EDTA stock to give a final concentration of 100 mM in the wells. […] A340 nm measurements were recorded at 0.5 minutes (start point) and at successive time points until the amount of NADH consumed reached ˜90% (end point, generally between 20-35 minutes).
# Evaluating analogs for inhibiting GroEL/ES-mediated substrate refolding functions. […] We first evaluated all test compounds in our standard GroEL/ES-mediated refolding assays that employ either malate dehydrogenase (MDH) or rhodanese (Rho) as the denatured substrate reporter enzymes. When denatured, these enzymes are efficiently folded by GroEL/ES in the absence of inhibitors, and thus act as reporters to determine the degree of inhibition against the bacterial chaperonin system. Inhibition was examined in the presence of these two orthogonal substrates in order to support that GroEL/ES inhibitors were on-target. To further support on-target effects against GroEL/ES, we counter-screened for inhibition of the native MDH and Rho enzymatic reporter reactions, where test compounds were added after the denatured MDH and Rho substrate enzymes were completely refolded by GroEL/ES.
# [1] = test system: Klebsiella pneumoniae strain NCTC 9633 (ATCC #13883); experiment: bacterial proliferation assay, K. pneumoniae; type: cell-based; settings: for EC50: Klebsiella pneumoniae, read-out: Bacterial Proliferation EC50 K. pneumoniae
# Experimental: (§1) All compounds were evaluated for inhibiting the proliferation of E. coli and each of the ESKAPE bacteria. Results presented represent the averages of EC50 values obtained from at least four replicates. Evaluating compounds for inhibition of bacterial cell proliferation.
# (§2) Growth Media: E. coli were grown with LB medium and all ESKAPE bacteria were grown in Brain Heart Infusion (BHI) medium (Becton, Dickinson and Company), with all liquid cultures supplemented with 25 mg/L Ca^2+ and 12.5 mg/L Mg^2+ to mimic physiological free concentrations of these cations. A 10 mg/mL Ca^2+ stock solution was prepared by dissolving 1.84 g of CaCl2.2H2O in 50 mL of deionized water, and a 10 mg/mL Mg^2+ stock solution was prepared by dissolving 4.18 g of MgCl2.6H2O in 50 mL deionized water—filter sterilized using 0.2 μm cellulose-acetate filters. 2.5 mL of the sterile 10 mg/mL Ca^2+ stock and 1.25 mL of the sterile 10 mg/mL Mg^2+ stock solutions were added per 1 L of autoclaved LB or BHI media to obtain 25 mg/L Ca^2+ and 12.5 mg/L Mg^2+ ions, respectively.
# (§3) General Assay Protocol: Stock bacterial cultures were streaked onto LB or BHI agar plates and grown overnight at 37° C. Fresh aliquots of cation supplemented media were inoculated with single bacterial colonies and the cultures were grown overnight at 37° C. with shaking (240 rpm). The following morning, cultures were diluted 10-fold into fresh media and grown at 37° C. until bacteria had reached mid-log phase growth (OD600˜0.4-0.6). The cultures were then diluted into fresh media to achieve final OD600 readings of 0.017. Aliquots of these diluted cultures (30 μL) were added to clear, flat-bottom 384-well polystyrene plates that were previously stamped with 0.5 μL of test compounds in 20 μL of media (yielding initial OD600=0.01 bacterial cultures). All compounds were tested in dose-response with concentration ranges during the proliferation assays from 100 μM to 46 nM (3-fold dilution series). A second set of baseline control plates were prepared analogously, but without any bacteria added, to correct for possible compound absorbance and/or precipitation. […] Plates were then read at 600 nm using a Molecular Devices SpectraMax Plus384 microplate reader. […] Results presented represent the averages of EC50 values obtained from at least four replicates.
# (§4) Evaluating analogs for inhibiting the growth of E. coli and the ESKAPE bacteria. Analogs were initially tested for antibacterial efficacy against representative strains of antibiotic-sensitive E. coli and the ESKAPE bacteria. To determine compound efficacy, bacterial proliferation assays were carried out in liquid media culture supplemented with physiological concentrations of free calcium and magnesium cations. For these assays, bacterial cultures (OD600=0.01) were exposed to test compounds in 8-point, 3-fold dilution series (100 μM to 46 nM concentration range), in 384-well plates. After addition of compounds to cultures, the plates were sealed with Breathe-Easy gas permeable membranes and allowed to grow to mid-log phase (OD600˜0.4-0.6), whereupon final OD600 readings were taken to assess for bacterial growth and inhibition.
# [2] = test system: Enterobacter cloacae strain CDC 442-68 (ATCC #13047); experiment: bacterial proliferation assay, E. cloacae; type: cell-based; settings: ATCC13047, read-out: Bacterial Proliferation EC50 E. cloacae
# Experimental: as §1, §2, §3, §4
# [3] = test system: Acinetobacter baumannii strain 2208 (ATCC 19606); experiment: bacterial proliferation assay, A. baumannii; type: cell-based; settings: ATCC19606, read-out: Bacterial Proliferation EC50 A. baumannii
# Experimental: as §1, §2, §3, §4
# [4] = test system: Staphylococcus aureus strain Seattle 1945 (ATCC #25923); experiment: bacterial proliferation assay, S. aureus; type: cell-based; settings: Staphylococcus aureus, ATCC25923; read-out: Bacterial Proliferation EC50 S. aureus
# Experimental: as §1, §2, §3, §4
# T1 sequence (P0A6F5 2-548): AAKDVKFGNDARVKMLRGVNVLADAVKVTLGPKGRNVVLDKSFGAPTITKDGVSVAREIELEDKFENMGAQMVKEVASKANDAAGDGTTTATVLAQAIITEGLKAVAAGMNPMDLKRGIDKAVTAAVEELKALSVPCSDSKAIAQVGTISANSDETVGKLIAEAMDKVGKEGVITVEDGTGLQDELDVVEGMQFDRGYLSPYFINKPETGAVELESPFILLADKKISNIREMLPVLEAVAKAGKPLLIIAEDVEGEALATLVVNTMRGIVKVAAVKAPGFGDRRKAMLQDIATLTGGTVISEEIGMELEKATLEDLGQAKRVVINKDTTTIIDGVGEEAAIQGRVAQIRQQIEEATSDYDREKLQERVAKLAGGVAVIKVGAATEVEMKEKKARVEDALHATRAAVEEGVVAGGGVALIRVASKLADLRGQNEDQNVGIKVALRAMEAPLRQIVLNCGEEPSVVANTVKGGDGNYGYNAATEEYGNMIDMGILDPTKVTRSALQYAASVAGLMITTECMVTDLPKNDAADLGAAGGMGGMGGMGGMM
Compound,IC50 (E. coli GroEL/ES) [µM],EC50 [1] [µM],EC50 [2] [µM],EC50 [3] [µM],EC50 [4] [µM],inhibition of K. pneumoniae in words [1]
"CCOc1ccc(S(=O)(=O)Nc2ccc(C(=O)N/N=C/c3ccc(O)c4ncccc34)cc2)cc1 [Compound 15, 4-ethoxy-N-(4-(2-((8-hydroxyquinolin-5-yl)methylene)hydrazine-1-carbonyl)phenyl)benzenesulfonamide]",6,> 100,> 100,> 100,> 100,–
"CCOc1ccc(S(=O)(=O)Nc2ccc(C(=O)N/N=C/c3ccc([N+](=O)[O-])o3)cc2)cc1 [Compound 28, 4-ethoxy-N-(4-(2-((5-nitrofuran-2-yl)methylene)hydrazine-1-carbonyl)phenyl)benzenesulfonamide]",36,> 100,> 100,> 100,> 100,–
"O=Cc1ccc([N+](=O)[O-])o1 [Compound 41, reference compound]",78,10,13,12,5.8,–
"O=C(N/N=C/c1ccc([N+](=O)[O-])o1)c1ccc(NS(=O)(=O)c2cccs2)cc1 [Compound 26, N-(4-(2-((5-nitrofuran-2-yl)methylene)hydrazine-1-carbonyl)phenyl)thiophene-2-sulfonamide]",> 100,> 100,> 100,> 100,11,–
"COc1ccc(C(=O)N/N=C/c2ccc(O)cc2)cc1 [Compound 35, N′-(4-hydroxybenzylidene)-4-methoxybenzohydrazide]",> 100,> 100,> 100,> 100,> 100,–
"O=C(N/N=C/c1cccc2ccccc12)c1ccccc1 [Compound 34, N′-(naphthalen-1-ylmethylene)benzohydrazide]",> 100,> 100,> 100,> 100,> 100,–
"O=C(N/N=C/c1cccc2ncccc12)c1ccccc1 [Compound 32, N′-(quinolin-5-ylmethylene)benzohydrazide]",> 100,> 100,> 100,> 100,> 100,–
"O=C(N/N=C/c1ccc([N+](=O)[O-])o1)c1ccncc1 [Compound 19, N′-((5-nitrofuran-2-yl)methylene)isonicotinohydrazide]",–,42,73,54,9.5,–
"CCN(CC)S(=O)(=O)c1cccc(C(=O)N/N=C/c2ccc([N+](=O)[O-])o2)c1 [Compound 25, N,N-diethyl-3-(2-((5-nitrofuran-2-yl)methylene)hydrazine-1-carbonyl)benzenesulfonamide]",90,> 100,> 100,> 100,9.6,–
"CN(C)c1ccc(C(=O)N/N=C/c2ccc(O)c3ncccc23)cc1 [Compound 8, 4-(dimethylamino)-N′-((8-hydroxyquinolin-5-yl)methylene)benzohydrazide]",27,> 100,> 100,> 100,99,–
"O=C(N/N=C/c1ccc(O)c2ncccc12)c1ccc(NS(=O)(=O)c2cccs2)cc1 [Compound 13, N-(4-(2-((8-hydroxyquinolin-5-yl)methylene)hydrazine-1-carbonyl)phenyl)thiophene-2-sulfonamide]",3.2,> 100,> 100,> 100,> 100,–
"O=C(N/N=C/c1ccc(O)c2ccccc12)c1ccccc1 [Compound 30, N′-((4-hydroxynaphthalen-1-yl)methylene)benzohydrazide]",> 100,> 100,> 100,> 100,88,–
"O=C(N/N=C/c1ccc(O)c2ncccc12)c1ccncc1 [Compound 6, N′-((8-hydroxyquinolin-5-yl)methylene)isonicotinohydrazide]",> 100,> 100,> 100,> 100,> 100,–
"O=C(N/N=C/c1ccc([N+](=O)[O-])o1)c1cccs1 [Compound 16, N′-((5-nitrofuran-2-yl)methylene)thiophene-2-carbohydrazide]",–,16,40,82,7.1,moderate inhibitors
"O=C1CN(/N=C/c2ccc(O)c3ncccc23)C(=O)N1 [Compound 2, 1-(((8-hydroxyquinolin-5-yl)methylene)amino)imidazolidine-2,4-dione]",> 100,> 100,> 100,> 100,37,–
"O=C(N/N=C/c1ccc([N+](=O)[O-])o1)c1ccccc1Oc1ccccc1 [Compound 23, N′-((5-nitrofuran-2-yl)methylene)-2-phenoxybenzohydrazide]",–,> 100,> 100,> 100,5.2,–
"O=C(N/N=C/c1ccc([N+](=O)[O-])o1)c1ccccc1 [Compound 18, N′-((5-nitrofuran-2-yl)methylene)benzohydrazide]",–,36,> 100,> 100,10,–
"O=C1CN(/N=C/c2ccc([N+](=O)[O-])o2)C(=O)N1 [Nitrofurantoin, reference compound]",–,40,36,> 100,27,–
